≈ marks a conversion by molar mass, not a printed value. Where “and” joins values, the source holds several entries; their conditions need not be identical. Equal entries are not always repeated.
Columns and labels:
E. coli CFT073 = test: Biofilm in silicone tubing, EAA flush, ATP assay
Y. enterocolitica [1] = test: Viable bacteria (cell counts) within the biofilm; format: cell-based, Yersinia enterocolitica
S. marcescens [2] = test: Biofilm amounts, ATP assay, 24-well polystyrene plate; format: cell-based; settings: Serratia marcescens, 30° C.
B. thermospacta = test: Ground beef at 10° C., counts on STAA plates; format: cell-based, Brocothrix thermospacta; settings: for Different from 0% (concentrations grouping differently from untreated control, Fisher's LSD and t-test): STAA, B. thermospacta
Procedure: (§1) Ground beef was obtained from the NDSU Meat Lab (ag.ndsu.edu/ansc/facilities/shepperd-arena). Precautionary steps that the slaughter facility undertakes to prevent microbial contamination of muscle meat include rinses of the hot carcass with hot water and 2.5% lactic acid (Birko Corp., Henderson, Colo.). Prior to cutting the meat, cattle halves are incubated for two weeks at a temperature between 0 and 2.2° C. For this Example, meat from two animals was ground within the NDSU Meat Lab and consecutively transferred on ice to the research lab where this Experiment was conducted. Approximately 4 pound of ground meat was obtained from two independent slaughter events (FIG. 6). These two original meat samples are referred to as biological replicates throughout this study. Each biological replicate was weighed into five aliquots of 200 g that were supplemented with 0 g, 0.1 g, 0.5 g, 1 g, or 5 g of liquid EAA (Alfa Aesar, Ward Hill Mass.). […]
(§2) Meat samples were removed from the freezer and incubated at 10° C. for five days; bacterial counts were determined on days 1, 3, and 5. […]
(§3) The content of each bag was transferred into a stomacher bag and Maximum Recovery Diluent (MRD) was added to a total of 50 ml. […] The total bacterial count of each homogenate was determined by plating serial dilutions on Plate Count Agar (PCA). Pseudomonads were determined with Pseudomonas Selective Agar (PSA), lactobacilli with All Purpose Tween agar (APT), B. thermospacta with Streptomycin sulphate, Thallous Acetate and Actidione agar (STAA), and Enterobacteriaceae with Violet Red Bile Glucose agar (VRBG). […]
(§4) Each experiment was performed in a total of 8 replicates (2 biological replicates×2 technical replicates×2 plate replicates). […] Data were analyzed for each EAA concentration and selective media and expressed as CFU/g of meat or log10 CFU/g of meat. […] Average and standard errors were calculated across the two biological and two technical replicates. […]

Y. enterocolitica [3] = test: Biofilm amounts, CV assay, 24-well polystyrene plate; format: cell-based, Yersinia enterocolitica
From the text: (§5) Data were expressed as OD600.

total bacterial count = test: Ground beef at 10° C., total bacterial count on PCA plates; format: cell-based; settings: for total bacterial count in the presence of EAA: day 3, unsupplemented 9 log10; for Different from 0% (concentrations grouping differently from untreated control, Fisher's LSD and t-test): PCA, total bacterial count
Procedure: Ground beef was obtained from the NDSU Meat Lab (ag.ndsu.edu/ansc/facilities/shepperd-arena). Precautionary steps that the slaughter facility undertakes to prevent microbial contamination of muscle meat include rinses of the hot carcass with hot water and 2.5% lactic acid (Birko Corp., Henderson, Colo.). Prior to cutting the meat, cattle halves are incubated for two weeks at a temperature between 0 and 2.2° C. For this Example, meat from two animals was ground within the NDSU Meat Lab and consecutively transferred on ice to the research lab where this Experiment was conducted. Approximately 4 pound of ground meat was obtained from two independent slaughter events (FIG. 6). These two original meat samples are referred to as biological replicates throughout this study. Each biological replicate was weighed into five aliquots of 200 g that were supplemented with 0 g, 0.1 g, 0.5 g, 1 g, or 5 g of liquid EAA (Alfa Aesar, Ward Hill Mass.). A total of six aliquots of 10 g were produced from each 200 g aliquot to allow for two technical replicates and determination of bacterial counts at three different time points during the incubation period. Aliquots were stored in Ziploc bags at −20° C.
Meat samples were removed from the freezer and incubated at 10° C. for five days; bacterial counts were determined on days 1, 3, and 5. For one initial experiment, samples were removed after 1 h of incubation at 10° C. This aliquot is not included in FIG. 6.
The content of each bag was transferred into a stomacher bag and Maximum Recovery Diluent (MRD) was added to a total of 50 ml. Meat was homogenized in a Seward Stomacher 400 Circulator (Cole Parmer, Vernon Hills, Ill.). The total bacterial count of each homogenate was determined by plating serial dilutions on Plate Count Agar (PCA). Pseudomonads were determined with Pseudomonas Selective Agar (PSA), lactobacilli with All Purpose Tween agar (APT), B. thermospacta with Streptomycin sulphate, Thallous Acetate and Actidione agar (STAA), and Enterobacteriaceae with Violet Red Bile Glucose agar (VRBG). For the composition of these media, see TABLE 7 (BD: Becton Dickinson). Each serial dilution was plated onto two separate agar plates to allow for two plate replicates (FIG. 6).
Each experiment was performed in a total of 8 replicates (2 biological replicates×2 technical replicates×2 plate replicates). To prepare for analysis, the data sets were pre-processed by determining the averages for the 2 plate replicates. Data were analyzed for each EAA concentration and selective media and expressed as CFU/g of meat or log10 CFU/g of meat. The lower limit of detection was 49 CFU, which is the equivalent of 1.69 log10. This number was used for all experiments that yielded zero colonies from the undiluted homogenate. To determine log reductions, the log10 CFU/g of meat at a given concentration of EAA was subtracted from that obtained for the untreated control piece of meat. Average and standard errors were calculated across the two biological and two technical replicates. Statistical analysis was started with an Analysis of Variance (ANOVA) test that compared the means of the log10 CFU/g data across concentrations, days, and biological replicates to determine the main effects. For comparisons that determined statistically significant differences between the means (p-value below 0.05), Fisher's Least Significant Difference (LSD) test and a pairwise Student's t-test were performed as post hoc test to determine which of the groups were different from the others.

E. coli O157:H7 = format: cell-based, Escherichia coli O157:H7; settings: 0.5% EAA
pseudomonads = test: Ground beef at 10° C., counts on PSA plates; format: cell-based; settings: for Different from 0% (concentrations grouping differently from untreated control, Fisher's LSD and t-test): PSA, Pseudomonas
Procedure: as §1, §2, §3, §4

S. aureus = test: Biofilm in silicone tubing, EAA flush, ATP assay; format: cell-based, Staphylococcus aureus
From the text: An AV Fistula Needle 17 Ga.

lactobacilli = test: Ground beef at 10° C., counts on APT plates; format: cell-based; settings: for Different from 0% (concentrations grouping differently from untreated control, Fisher's LSD and t-test): LPT, Lactobacilli
Procedure: as §1, §2, §3, §4

P. aeruginosa [4] = test: Viable cell counts from the biofilms in silicone tubing; settings: 100 mg/ml of EAA, end of two week incubation
Y. enterocolitica [5] = test: Biofilm in silicone tubing, EAA flush, CV assay; settings: 10 mg/ml EAA
P. aeruginosa [6] = test: Viable cell counts in the liquid collected from the tubing before each treatment
rats = rats fed up to 300 mg/kg body weight of EAA every day for 28 days; cited from earlier work
C. sakazakii = test: Biofilm amounts, CV assay, 24-well polystyrene plate; format: cell-based; settings: Cronobacter sakazakii, 37° C.
From the text: as §5

S. marcescens [7] = test: as above; format: cell-based; settings: Serratia marcescens, 30° C.
From the text: as §5

isolated bovine corneas = settings: cited from earlier work
E. coli = settings: cited from earlier work

CCOC(=O)CC(C)=O [EAA, ethyl acetoacetate]
reduction in ATP content of the biofilm (E. coli CFT073; E. coli CFT073, 5 mg/ml EAA): ~100% | percent reduction of ATP (E. coli CFT073; E. coli CFT073, 100 mg/ml EAA): 98.5% | reduction of bacterial cell counts in the biofilm (Y. enterocolitica [1]; 25° C., 7.5 mg/ml EAA): 2.06 logs | reduction of bacterial cell counts in the biofilm (Y. enterocolitica [1]; 25° C., 10 mg/ml EAA): 3.07 logs | bacterial cell counts in the biofilm (Y. enterocolitica [1]; 37° C., 2.5 mg/ml EAA): did not show a reduction | log reduction of bacterial cell counts in the biofilm (Y. enterocolitica [1]; 37° C., 7.5 mg/ml EAA): 2.06 logs | log reduction in live bacteria within the biofilm (Y. enterocolitica [1]; 37° C., 10 mg/ml of EAA): 0.92 | reduction in live bacteria within the biofilm, fold equivalent (Y. enterocolitica [1]; 37° C., 10 mg/ml of EAA): 8.3 fold | IC50 (Y. enterocolitica [1]; Yersinia enterocolitica, Y. enterocolitica, 25° C., live bacteria in the biofilm, read-out: IC50, Live cells): 3000 µg/mL (≈ 23.1 mM) | IC50 (S. marcescens [2]): 5500 µg/mL (≈ 42.3 mM) | log reduction, Brocothrix thermospecta (B. thermospacta; 0.5% w/w EAA, 3 days at 10° C.): 2.1 | Different from 0% (concentrations grouping differently from untreated control, Fisher's LSD and t-test) (B. thermospacta; 0.5% EAA): 0.5% | Different from 0% (concentrations grouping differently from untreated control, Fisher's LSD and t-test) (B. thermospacta; 2.5% EAA): 2.5% | biofilm amounts quantified by the CV assay (Y. enterocolitica [3]; 37° C., 10 mg/ml EAA): abolished | IC50 (Y. enterocolitica [3]; Yersinia enterocolitica, Y. enterocolitica, 25° C.): 1000 µg/mL (≈ 7.68 mM) | log reduction, total bacterial count (total bacterial count; 0.5% EAA, 3 days at 10° C.): 2.4 | log reduction, total bacterial count (total bacterial count; 0.5% of EAA, 1 day at 10° C.): 0.65 | total bacterial count in the presence of EAA (total bacterial count; 0.5% of EAA): 7.8 log10 | reduction of total bacterial count (total bacterial count; 2.5% EAA, 5 days at 10° C.): 4.3 logs | log reduction, total bacterial count (total bacterial count; 2.5% of EAA, 1 day at 10° C.): 2.1 | total bacterial count in the presence of EAA (total bacterial count; 2.5% of EAA): 6.6 log10 | Different from 0% (concentrations grouping differently from untreated control, Fisher's LSD and t-test) (total bacterial count; 0.5% EAA): 0.5% | Different from 0% (concentrations grouping differently from untreated control, Fisher's LSD and t-test) (total bacterial count; 2.5% EAA): 2.5% | externally added E. coli count in the presence of EAA (E. coli O157:H7; day 3, without EAA 5.2 log10): 4.1 log10 | reduction in the E. coli count (E. coli O157:H7; day 5 at 10° C.): 1.6 log | log reduction, pseudomonads (pseudomonads; 0.5% w/w EAA, 3 days at 10° C.): 2.6 | Different from 0% (concentrations grouping differently from untreated control, Fisher's LSD and t-test) (pseudomonads; 0.5% EAA): 0.5% | Different from 0% (concentrations grouping differently from untreated control, Fisher's LSD and t-test) (pseudomonads; 2.5% EAA): 2.5% | percent reduction of ATP (S. aureus; 100 mg/ml EAA): 75% and 76% | ATP assay of the biofilm at the end of the two week incubation (S. aureus; 100 mg/ml of EAA, repeated experiment): just about abolished the biofilm | log reduction, lactobacilli (lactobacilli; 0.5% w/w EAA, 3 days at 10° C.): 1.8 | Different from 0% (concentrations grouping differently from untreated control, Fisher's LSD and t-test) (lactobacilli; 0.5% EAA): 0.5% | Different from 0% (concentrations grouping differently from untreated control, Fisher's LSD and t-test) (lactobacilli; 2.5% EAA): 2.5% | reduction of cell counts within the biofilm (P. aeruginosa [4]): about 3 logs | reduction in biofilm biomass (CV), words (Y. enterocolitica [5]): No reduction | difference in viable cells in the liquid, EAA vs media flush (P. aeruginosa [6]; before the 2nd treatment, 100 mg/ml of EAA as first treatment): < 2 log | increase in viable cells in the liquid, EAA vs media flush (P. aeruginosa [6]; before the 4th treatment, 3 treatments of 100 mg/ml of EAA): ~1 log | difference in cell numbers, EAA vs media control (P. aeruginosa [6]; before the third treatment, two treatments of 100 mg/ml of EAA): approximately 2 logs | general health, hematology, serum, urine, renal function (rats): did not result in any general health defects or changes in hematology, serum, urine, or renal function | IC50 (C. sakazakii): 700 µg/mL (≈ 5.38 mM) | IC50 (S. marcescens [7]): 5600 µg/mL (≈ 43 mM) | eye irritation (isolated bovine corneas): moderate eye irritation that was fully reversible after seven days | mutagenicity (E. coli): a mutagenic effect could be detected

Source: patent US11452292B2, “Biofilm inhibitor and method of inhibiting biofilm” (NDSU Research Foundation, priority 2017, dated 2022)
